# In US8524727B2, “Pyrimidine compound” (Astellas Pharma Inc., priority 2009, dated 2013):
# Experiments:
# human CB2 = target: T1, human CB2 (Homo sapiens, UniProt P34972); test: Human CB2-mediated cyclic AMP (cAMP) production inhibition assay; format: cell-based; details: 30 nM test substance, human CB2-expressing CHO cells, forskolin 0.5 μM, 30 minutes at room temperature; for inhibition at 0.03 µM: CHO, read-out: Inh (%): inhibitory rate of cAMP increase
# T1 construct: expressed in transfected cells; host or cells: CHO cells
# T1 sequence (P34972 whole entry): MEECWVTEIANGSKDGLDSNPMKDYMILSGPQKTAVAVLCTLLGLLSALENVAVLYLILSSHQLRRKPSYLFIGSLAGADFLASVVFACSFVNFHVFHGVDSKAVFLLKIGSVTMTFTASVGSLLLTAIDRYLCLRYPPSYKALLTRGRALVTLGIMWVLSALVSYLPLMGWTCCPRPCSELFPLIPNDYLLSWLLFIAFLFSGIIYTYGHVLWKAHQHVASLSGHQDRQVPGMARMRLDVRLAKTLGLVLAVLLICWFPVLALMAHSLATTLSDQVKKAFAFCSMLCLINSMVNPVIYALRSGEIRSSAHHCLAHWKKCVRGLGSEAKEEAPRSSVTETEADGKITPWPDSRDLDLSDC
# Protocol: The present test was performed using CHO cells expressing human CB2 (“Molecular Pharmacology”, 1995, vol. 48, p. 443-450).
# A suspension of human CB2-expressing CHO cells (2.5×10^3/mL), and an assay medium added with a test substance and forskolin (final concentration 0.5 μM) were mixed in the equivalent amounts, and incubated at room temperature for 30 minutes. Then, the cAMP concentration in the cell lysis solution obtained by the addition of a 0.6% Triton X-100 solution was measured using a cAMP kit (manufactured by Cisbio international). The assay medium includes an α-MEM medium manufactured by Invitrogen, supplemented with 0.02% CHAPS, 1 mM isobutylmethyl xanthine, and 0.5 mg/mL bovine serum albumin. As the cAMP concentration in the cell suspension without the addition of forskolin was set as a cAMP increase rate of 0% and the cAMP concentration in the cell suspension with the addition of forskolin was set as a cAMP increase rate of 100%, the inhibitory rate of the intracellular cAMP increase at 30 nM test substance was determined.
# In the table, Ex indicates Example Compound number below, and Inh indicates an inhibitory rate of cAMP increase.
# [1] = tested on: adjuvant-induced arthritis rats; test: Inhibitory effect on hind paw weight distribution in adjuvant-induced arthritis rats; format: in vivo; details: orally administered, female Lewis rats
# Protocol: For the experiment, female Lewis rats (7-8 week old) were used. 50 μL of inactivated Mycobacterium tuberculosis H37 Ra (manufactured by DIFCO) suspended with liquid paraffin to 10 mg/mL was administered subcutaneously into the right hindlimb footpad. The test substance was orally administered next day, the weights of the left and right hind paws after an arbitrary time were measured using Incapasitance Tester (manufactured by Columbus Instruments), and the weight distribution between left and right was calculated. As the weight distribution of the group administered with the vehicle was set as the inhibitory rate of 0% and the weight distribution of the normal group was set as the inhibitory rate of 100%, the inhibitory rate of the test substance was calculated.
# In the table, Ex indicates Example Compound number below, Inh indicates an inhibitory rate of the weight distribution, and the description after to @ means the administration amount.
smiles,measurement,setting,value
O=C(c1cnc(N[C@@H]2C[C@H]3CC[C@@H]2C3)nc1C1CC1)N1CCS(=O)(=O)CC1 [Example 67],inhibition at 0.03 µM,human CB2,76%
O=C(c1cnc(NC23CC4CC(CC(O)(C4)C2)C3)nc1C(F)(F)F)N1CC(F)(F)C(F)(F)C1 [Example 88],inhibition at 0.03 µM,human CB2,76%
O=C(c1cnc(NC23CC4CC(CC(C4)C2)C3)nc1C(F)(F)F)N1CCC(F)(F)CC1 [Example 45],inhibition at 0.03 µM,human CB2,79%
O=C(c1cnc(NC23CC4(F)CC(F)(CC(F)(C4)C2)C3)nc1C(F)(F)F)N1CCS(=O)(=O)CC1 [Example 109],inhibition at 0.03 µM,human CB2,80%
same,Inh (%): inhibitory rate of the weight distribution,[1]; 0.3 mpk,35@0.3 mpk %
O=C(c1cnc(NC23CC4CC(CC(C4)C2)C3)nc1C(F)(F)F)N1CCOCC1 [Example 143],inhibition at 0.03 µM,human CB2,70%
O=C(c1cnc(N[C@H]2C[C@@H]3CC[C@H]2C3)nc1C(F)(F)F)N1CCS(=O)(=O)CC1 [Example 138],inhibition at 0.03 µM,human CB2,49%
CC(C)c1nc(N[C@@H]2C[C@H]3CC[C@@H]2C3)ncc1C(=O)N1CCOCC1 [Example 64],Inh (%): inhibitory rate of cAMP increase,human CB2,85%
same,Inh (%): inhibitory rate of the weight distribution,[1]; 0.1 mpk,52@0.1 mpk %
CC1(C)[C@@H]2CC[C@@]1(C)[C@@H](Nc1ncc(C(=O)N3CCS(=O)(=O)CC3)c(C(F)(F)F)n1)C2 [Example 106],inhibition at 0.03 µM,human CB2,74%
O=C(c1cnc(NC23CCC(CC2)CC3)nc1C(F)(F)F)N1CCS(=O)(=O)CC1 [Example 122],inhibition at 0.03 µM,human CB2,70%
same,Inh (%): inhibitory rate of the weight distribution,[1]; 0.1 mpk,45@0.1 mpk %
CC(C)(C)c1nc(N[C@@H]2C[C@H]3CC[C@@H]2C3)ncc1C(=O)N1CCOCC1 [Example 72],inhibition at 0.03 µM,human CB2,99%
same,Inh (%): inhibitory rate of the weight distribution,[1]; 0.1 mpk,40@0.1 mpk %
CC(C)c1nc(N[C@@H]2C[C@H]3CC[C@@H]2C3)ncc1C(=O)N1CCOCC1 [Example 83],inhibition at 0.03 µM,human CB2,84%
O=C(c1cnc(N[C@@H]2C[C@H]3CC[C@@H]2C3)nc1C(F)(F)F)N1CCS(=O)(=O)CC1 [Example 133],Inh (%): inhibitory rate of cAMP increase,human CB2,80%
FC1(F)CCN(Cc2cnc(N[C@@H]3C[C@H]4CC[C@@H]3C4)nc2C(F)(F)F)CC1 [Example 161],inhibition at 0.03 µM,human CB2,75%
CC(C)c1nc(N[C@H]2C[C@@H]3CC[C@H]2C3)ncc1C(=O)N1CCOCC1 [Example 79],inhibition at 0.03 µM,human CB2,74%
O=C(c1cnc(N[C@@H]2C[C@H]3CC[C@@H]2C3)nc1C(F)(F)F)N1CCS(=O)(=O)CC1 [Example 103],inhibition at 0.03 µM,human CB2,67%
same,Inh (%): inhibitory rate of the weight distribution,[1]; 0.3 mpk,41@0.3 mpk %
CC1(C)CCN(c2ncc(C(=O)N3CCS(=O)(=O)CC3)c(C(F)(F)F)n2)c2ccccc21 [Example 55],inhibition at 0.03 µM,human CB2,63%
